Measurements reported in patent US9604933B2, “Pyrazolochalcones as potential anticancer agents” (COUNCIL OF SCIENTIFIC AND INDUSTRIAL RESEARCH, priority 2013, dated 2017).
Like-named read-outs stand apart in the source and are kept apart here.

Legend:
CCRF-CEM = experiment: NCI SRB cytotoxicity, leukemia CCRF-CEM; type: cell-based; conditions: Homo sapiens, 48 h exposure
Experimental: (§1) The pyrazolochalcones (7e, 8e, 10e, 11e, 12e, 13e and 8f) have been tested against fifty nine human tumor cell lines derived from nine cancer types (leukemia, non-small cell lung cancer, colon cancer, CNS cancer, melanoma, ovarian cancer, renal cancer, prostate cancer and breast cancer) as per the NCI protocol. For each compound, dose response curves for individual cell lines have been measured at a minimum of five concentrations at 10 fold dilutions. A protocol of 48 h continuous drug exposure has been used, and a sulforhodamine B (SRB) protein assay has been used to estimate cell viability or growth. The concentration for 50% cell growth inhibition (GI50), 50% cell death (LC50, 50% growth) and total cell growth inhibition (TGI, 0% growth) values were tabulated (Table-1). DMSO was used as control to calculate the values of GI50, LC50 and TGI. The compounds 7e, 8e, 10e, 11e, 12e, 13e and 8f has been evaluated for their in vitro cytotoxicity in […] cell lines from nine human cancer types of leukemia (K-562, SR), non-small cell lung (Hop-62, NCI-H226, NCI-H522), colon (HCT-116, HCT-15, HCC-2998), CNS (SF-539), melanoma (SK-MEL-5, UACC-62, M14), ovarian (IGROV1), renal (A498), prostate (PC3) and breast (BT-549, MDA-MB-435, HS578T) origin. The results are expressed as percent of cell growth determined relative to that of untreated control cells (Table 2).

RPMI-8226 = experiment: NCI SRB cytotoxicity, leukemia RPMI-8226; type: cell-based; conditions: Homo sapiens, 48 h exposure
Experimental: as §1

A549/ATCC = experiment: NCI SRB cytotoxicity, non-small cell lung A549/ATCC; type: cell-based; conditions: Homo sapiens, 48 h exposure
Experimental: as §1

HOP-62 = experiment: NCI SRB cytotoxicity, non-small cell lung HOP-62; type: cell-based; conditions: Homo sapiens, 48 h exposure
Experimental: as §1

NCI-H23 = experiment: NCI SRB cytotoxicity, non-small cell lung NCI-H23; type: cell-based; conditions: Homo sapiens, 48 h exposure
Experimental: as §1

NCIH322M = experiment: NCI SRB cytotoxicity, non-small cell lung NCIH322M; type: cell-based; conditions: Homo sapiens, NCI-H322M, 48 h exposure
Experimental: as §1

NCI-H460 = experiment: NCI SRB cytotoxicity, non-small cell lung NCI-H460; type: cell-based; conditions: Homo sapiens, 48 h exposure
Experimental: as §1

NCI-H522 = experiment: NCI SRB cytotoxicity, non-small cell lung NCI-H522; type: cell-based; conditions: Homo sapiens, 48 h exposure
Experimental: as §1

HCT-116 = experiment: NCI SRB cytotoxicity, colon HCT-116; type: cell-based; conditions: Homo sapiens, 48 h exposure
Experimental: as §1

KM12 = experiment: NCI SRB cytotoxicity, colon KM12; type: cell-based; conditions: Homo sapiens, 48 h exposure
Experimental: as §1

SW-620 = experiment: NCI SRB cytotoxicity, colon SW-620; type: cell-based; conditions: Homo sapiens, 48 h exposure
Experimental: as §1

SF-268 = experiment: NCI SRB cytotoxicity, CNS SF-268; type: cell-based; conditions: Homo sapiens, 48 h exposure
Experimental: as §1

SNB-75 = experiment: NCI SRB cytotoxicity, CNS SNB-75; type: cell-based; conditions: Homo sapiens, 48 h exposure
Experimental: as §1

LOX IMVI = experiment: NCI SRB cytotoxicity, melanoma LOX IMVI; type: cell-based; conditions: Homo sapiens, 48 h exposure
Experimental: as §1

MDA-MB-435 [1] = experiment: NCI SRB cytotoxicity, melanoma MDA-MB-435; type: cell-based; conditions: Homo sapiens, Melanoma panel MDA-MB-435, 48 h exposure
Experimental: as §1

SK-MEL-28 = experiment: NCI SRB cytotoxicity, melanoma SK-MEL-28; type: cell-based; conditions: Homo sapiens, 48 h exposure
Experimental: as §1

SK-MEL-5 = experiment: NCI SRB cytotoxicity, melanoma SK-MEL-5; type: cell-based; conditions: Homo sapiens, 48 h exposure
Experimental: as §1

UACC-257 = experiment: NCI SRB cytotoxicity, melanoma UACC-257; type: cell-based; conditions: Homo sapiens, 48 h exposure
Experimental: as §1

IGROV1 = experiment: NCI SRB cytotoxicity, ovarian IGROV1; type: cell-based; conditions: Homo sapiens, IGROV-1, 48 h exposure
Experimental: as §1

OVCAR-4 = experiment: NCI SRB cytotoxicity, ovarian OVCAR-4; type: cell-based; conditions: Homo sapiens, 48 h exposure
Experimental: as §1

OVCAR-5 = experiment: NCI SRB cytotoxicity, ovarian OVCAR-5; type: cell-based; conditions: Homo sapiens, 48 h exposure
Experimental: as §1

786-0 = experiment: NCI SRB cytotoxicity, renal 786-0; type: cell-based; conditions: Homo sapiens, 48 h exposure
Experimental: as §1

A498 = experiment: NCI SRB cytotoxicity, renal A498; type: cell-based; conditions: Homo sapiens, 48 h exposure
Experimental: as §1

CAKI-1 = experiment: NCI SRB cytotoxicity, renal CAKI-1; type: cell-based; conditions: Homo sapiens, 48 h exposure
Experimental: as §1

RXF 393 = experiment: NCI SRB cytotoxicity, renal RXF 393; type: cell-based; conditions: Homo sapiens, 48 h exposure
Experimental: as §1

TK-10 = experiment: NCI SRB cytotoxicity, renal TK-10; type: cell-based; conditions: Homo sapiens, 48 h exposure
Experimental: as §1

UO-31 = experiment: NCI SRB cytotoxicity, renal UO-31; type: cell-based; conditions: Homo sapiens, 48 h exposure
Experimental: as §1

HS 578T = experiment: NCI SRB cytotoxicity, breast HS 578T; type: cell-based; conditions: Homo sapiens, 48 h exposure
Experimental: as §1

MDA-MB-435 [2] = experiment: NCI SRB cytotoxicity, breast panel MDA-MB-435; type: cell-based; conditions: Homo sapiens, 48 h exposure
Experimental: as §1

Leukemia = experiment: NCI SRB cytotoxicity, leukemia panel average; type: cell-based, human; conditions: average of cell lines
Experimental: as §1
(§2) Each cancer type represents the average of six to eight different cancer cell lines.

Non-small cell lung = experiment: NCI SRB cytotoxicity, non-small cell lung panel average; type: cell-based, human; conditions: average of cell lines
Experimental: as §1, §2

Ovarian = experiment: NCI SRB cytotoxicity, ovarian panel average; type: cell-based, human; conditions: average of cell lines
Experimental: as §1, §2

Prostate = experiment: NCI SRB cytotoxicity, prostate panel average; type: cell-based, human; conditions: average of cell lines
Experimental: as §1, §2

Breast = experiment: NCI SRB cytotoxicity, breast panel average; type: cell-based, human; conditions: average of cell lines
Experimental: as §1, §2

human tumor cell lines = experiment: NCI SRB cytotoxicity, all fifty nine human tumor cell lines; type: cell-based; parameters: Log10 TGI mean graph midpoint (MG_MID): unit not given here; conditions: for GI50: Homo sapiens
Experimental: as §1
The mean graph midpoint values of Log10 TGI and Log10 LC50 as well as Log10 GI50 for compounds 7e, 8e, 10e, 11e, 12e, 13e and 8f is listed in Table-3. […] The mean graph mid points of Log10 TGI and Log10, LC50 have shown similar pattern to the log10 GI50 mean graph mid points.

[3] = Homo sapiens, read-out: Log10 GI50 (concentration in mol/L causing 50% growth inhibition) (converted)
[4] = Homo sapiens, read-out: Log10 LC50 (concentration in mol/L causing 50% cell death) (converted)

COc1ccc(C(=O)/C=C/c2cc(-c3cc(OC)c(OC)c(OC)c3)n[nH]2)cc1 [7e, (E)-1-(4-methoxyphenyl)-3-(3-(3,4,5-trimethoxyphenyl)-1H-pyrazol-5-yl)prop-2-en-1-one]
GI50 (CCRF-CEM): 1420 nM | GI50 (RPMI-8226): 430 nM | GI50 (A549/ATCC): 2270 nM | GI50 (HOP-62): 1760 nM | GI50 (NCI-H23): 3.04 µM | GI50 (NCIH322M): 1920 nM | GI50 (NCI-H460): 1720 nM | GI50 (NCI-H522): 1470 nM | GI50 (HCT-116): 1730 nM | GI50 (KM12): 1560 nM | GI50 (SW-620): 1620 nM | GI50 (SF-268): 1990 nM | GI50 (SNB-75): 1490 nM | GI50 (LOX IMVI): 1580 nM | GI50 (MDA-MB-435 [1]): 2200 nM | GI50 (SK-MEL-28): 2120 nM | GI50 (SK-MEL-5): 1720 nM | GI50 (UACC-257): 1750 nM | GI50 (IGROV1): 2210 nM | GI50 (OVCAR-4): 2200 nM | GI50 (OVCAR-5): 1880 nM | GI50 (786-0): 1950 nM | GI50 (A498): 1740 nM | GI50 (CAKI-1): 2340 nM | GI50 (RXF 393): 1270 nM | GI50 (TK-10): 2220 nM | GI50 (UO-31): 1450 nM | GI50 (HS 578T): 3.6 µM | GI50 (MDA-MB-435 [2]): 1290 nM | GI50 (Leukemia; [3]): 1200 nM | CC50 (Leukemia; [4]): 0.0001 mol/L | Log10 TGI (concentration in mol/L causing total growth inhibition (0% growth)) (Leukemia): −5.18 mol/L | GI50 (Non-small cell lung; [3]): 1820 nM | LC50 (Non-small cell lung; [4]): 21.9 µM | Log10 TGI (concentration in mol/L causing total growth inhibition (0% growth)) (Non-small cell lung): −5.36 mol/L | GI50 (Ovarian; [3]): 2400 nM | CC50 (Ovarian; [4]): 47.9 µM | Log10 TGI (concentration in mol/L causing total growth inhibition (0% growth)) (Ovarian): −5.15 mol/L | GI50 (Prostate; [3]): 1480 nM | Log10 TGI (concentration in mol/L causing total growth inhibition (0% growth)) (Prostate): −5.55 mol/L | GI50 (Breast; [3]): 1910 nM | CC50 (Breast; [4]): 33.9 µM | Log10 TGI (concentration in mol/L causing total growth inhibition (0% growth)) (Breast): −5.08 mol/L | GI50 (human tumor cell lines; across fifty nine cell lines in nine cell panels, read-out: GI50 value range): 180 to 29200 nM | GI50 (human tumor cell lines; against human tumor cell lines, read-out: Log10 GI50 mean graph midpoint (MG_MID) (converted)): 1780 nM | cytotoxicity (human tumor cell lines; against cancer cell lines, in words): significant cytotoxicity | Log10 TGI mean graph midpoint (MG_MID) (human tumor cell lines; against human tumor cell lines): −5.31 | LC50 (human tumor cell lines; against human tumor cell lines, read-out: Log10 LC50 mean graph midpoint (MG_MID) (converted)): 33.9 µM
